Laboratory results: ChEMBL document CHEMBL5724914, “Linking interpersonal differences in gut microbiota composition and drug biotransformation activity” (2024)
Where a SMILES comes first, the peptide text is derived from it. [ ]: non-standard residue; d: D form. pGlu = O=C1CC[C@@H](C(=O)O)N1; Thz = O=C(O)[C@@H]1CSCN1

Key:
[1] = The drug is tested on Z-023 corresponding to metagenome with ENA study accession number: PRJEB37062 and ENA sample accession number: ERS12561822 for biotransformation under anaerobic condition. The drug concentrations were measured over 9 timepoints collected between 0 and 24 hours of incubation by liquid-chromatography-coupled mass spectrometry (LC–MS); settings: 2 µM
[2] = (§1) The drug is tested on WLS-240 corresponding to human gut metagenome with ENA study accession number: PRJEB37062 and ENA sample accession number: ERS12561773 for biotransformation under anaerobic condition. The drug concentrations were measured over 9 timepoints collected between 0 and 24 hours of incubation by liquid-chromatography-coupled mass spectrometry (LC–MS); settings: 2 µM
[3] = as §1, with “WLS-007” for “WLS-240”, “ERS12561742” for “ERS12561773”; settings: 2 µM
[4] = human gut metagenome, 24 h, 2 µM
[5] = human gut metagenome, 24 h, 2 µM; remark: listed apart in the source
[6] = human gut metagenome, 24 h, 2 µM; remark: listed apart in the source
[7] = human gut metagenome, 24 h, 2 µM; remark: listed apart in the source
[8] = human gut metagenome, 24 h, 2 µM; remark: listed apart in the source
[9] = human gut metagenome, 24 h, 2 µM; remark: listed apart in the source
Also: call rule not given here.

Compound	Bacterial Biotransformation [1]	Bacterial Biotransformation [2]	Bacterial Biotransformation [3]	Bacterial Biotransformation [4]	Bacterial Biotransformation [5]	Bacterial Biotransformation [6]	Bacterial Biotransformation [7]	Bacterial Biotransformation [8]	Bacterial Biotransformation [9]
CCCc1nc2c(C)cc(-c3nc4ccccc4n3C)cc2n1Cc1ccc(-c2ccccc2C(=O)O)cc1	Compound metabolized	Compound metabolized	Compound metabolized	Compound metabolized	Compound metabolized	Compound metabolized	Compound metabolized	Compound NOT metabolized	Compound metabolized
CCCCC(=O)N(Cc1ccc(-c2ccccc2-c2nnn[nH]2)cc1)[C@H](C(=O)O)C(C)C	Compound NOT metabolized	Compound metabolized	Compound metabolized	Compound metabolized	Compound metabolized	Compound metabolized	Compound metabolized	Compound metabolized	Compound metabolized
Cc1cc2c(cc1S(N)(=O)=O)S(=O)(=O)CCC2	Compound NOT metabolized	Compound NOT metabolized	Compound NOT metabolized	Compound NOT metabolized	Compound NOT metabolized	Compound NOT metabolized	Compound NOT metabolized	Compound NOT metabolized	Compound NOT metabolized
CN1CCc2c(c3ccccc3n2Cc2ccccc2)C1.CN1CCc2c(c3ccccc3n2Cc2ccccc2)C1.O=S(=O)(O)c1cccc2c(S(=O)(=O)O)cccc12	Compound NOT metabolized	Compound NOT metabolized	Compound NOT metabolized	Compound NOT metabolized	Compound NOT metabolized	Compound NOT metabolized	Compound NOT metabolized	Compound NOT metabolized	Compound NOT metabolized
CCC(COC(=O)c1cc(OC)c(OC)c(OC)c1)(c1ccccc1)N(C)C.O=C(O)/C=C\C(=O)O (centres undefined)	Compound metabolized	Compound metabolized	Compound NOT metabolized	Compound metabolized	Compound NOT metabolized	Compound NOT metabolized	Compound NOT metabolized	Compound metabolized	Compound NOT metabolized
COc1ccc(CCN(C)CCCC(C#N)(c2ccc(OC)c(OC)c2)C(C)C)cc1OC (centres undefined)	Compound metabolized	Compound metabolized	Compound metabolized	Compound metabolized	Compound NOT metabolized	Compound metabolized	Compound NOT metabolized	Compound metabolized	Compound metabolized
CN1CC(=O)N2[C@H](c3ccc4c(c3)OCO4)c3[nH]c4ccccc4c3C[C@@H]2C1=O	Compound metabolized	Compound metabolized	Compound metabolized	Compound metabolized	Compound NOT metabolized	Compound metabolized	Compound metabolized	Compound metabolized	Compound metabolized
COc1cc2nc(N(C)CCCNC(=O)C3CCCO3)nc(N)c2cc1OC (centres undefined) [ALFUZOSIN]	Compound NOT metabolized	Compound metabolized	Compound metabolized	Compound metabolized	Compound NOT metabolized	Compound metabolized	Compound metabolized	Compound metabolized	Compound metabolized
NC12CC3CC(CC(C3)C1)C2 [AMANTADINE]	Compound NOT metabolized	Compound NOT metabolized	Compound NOT metabolized	Compound NOT metabolized	Compound NOT metabolized	Compound NOT metabolized	Compound NOT metabolized	Compound NOT metabolized	Compound NOT metabolized
CC(C)(C#N)c1cc(Cn2cncn2)cc(C(C)(C)C#N)c1 [ANASTROZOLE]	Compound metabolized	Compound metabolized	Compound NOT metabolized	Compound metabolized	Compound NOT metabolized	Compound metabolized	Compound NOT metabolized	Compound NOT metabolized	Compound metabolized
O=P(O)(O)O.c1ccc(CN(CC2=NCCN2)c2ccccc2)cc1 [ANTAZOLINE PHOSPHATE]	Compound NOT metabolized	Compound metabolized	Compound metabolized	Compound metabolized	Compound NOT metabolized	Compound metabolized	Compound NOT metabolized	Compound metabolized	Compound metabolized
CCCCCCOC(=O)/N=C(/N)c1ccc(NCc2nc3cc(C(=O)N(CCC(=O)OCC)c4ccccn4)ccc3n2C)cc1.CS(=O)(=O)O [DABIGATRAN ETEXILATE MESYLATE]	Compound NOT metabolized	–	–	–	–	–	–	Compound NOT metabolized	Compound metabolized
C[C@@H]1C[C@H]2[C@@H]3CCC4=CC(=O)C=C[C@]4(C)[C@@]3(F)[C@@H](O)C[C@]2(C)[C@@]1(O)C(=O)CO [DEXAMETHASONE]	Compound metabolized	–	Compound NOT metabolized	Compound NOT metabolized	Compound NOT metabolized	Compound NOT metabolized	Compound NOT metabolized	Compound NOT metabolized	Compound NOT metabolized
O=c1[nH]c2ccccc2n1CCCN1CCC(n2c(=O)[nH]c3cc(Cl)ccc32)CC1 [DOMPERIDONE]	Compound NOT metabolized	Compound NOT metabolized	Compound NOT metabolized	Compound NOT metabolized	Compound NOT metabolized	–	Compound NOT metabolized	Compound NOT metabolized	Compound NOT metabolized
c1ccc([C@H]2CN3CCSC3=N2)cc1 [LEVAMISOLE]	–	Compound metabolized	Compound metabolized	Compound metabolized	Compound metabolized	Compound metabolized	Compound metabolized	Compound metabolized	–
C#C[C@]1(O)CC[C@H]2[C@@H]3CCC4=CC(=O)CC[C@@H]4[C@H]3CC[C@@]21CC [LEVONORGESTREL]	–	–	Compound metabolized	Compound metabolized	Compound metabolized	Compound metabolized	Compound NOT metabolized	Compound metabolized	Compound metabolized
C=CCN1CC[C@]23c4c5ccc(O)c4O[C@H]2C(=O)CC[C@@]3(O)[C@H]1C5 [NALOXONE]	Compound NOT metabolized	Compound NOT metabolized	–	Compound NOT metabolized	Compound NOT metabolized	Compound NOT metabolized	Compound NOT metabolized	Compound NOT metabolized	Compound NOT metabolized
NC(=O)N1c2ccccc2CC(=O)c2ccccc21 [OXCARBAZEPINE]	Compound metabolized	Compound NOT metabolized	–	Compound NOT metabolized	Compound NOT metabolized	Compound NOT metabolized	Compound NOT metabolized	Compound NOT metabolized	Compound NOT metabolized
O=C1CC[C@@H](C(=O)N2CSC[C@H]2C(=O)O)N1 [PIDOTIMOD] ([pGlu]-[Thz]-OH)	Compound metabolized	Compound NOT metabolized	–	–	–	–	Compound NOT metabolized	Compound NOT metabolized	Compound NOT metabolized
COc1cc2nc(N3CCN(C(=O)c4ccco4)CC3)nc(N)c2cc1OC [PRAZOSIN]	Compound NOT metabolized	Compound metabolized	Compound NOT metabolized	Compound metabolized	Compound NOT metabolized	Compound metabolized	Compound metabolized	–	Compound metabolized
COC(=O)[C@H]1[C@H]2C[C@@H]3c4[nH]c5cc(OC)ccc5c4CCN3C[C@H]2C[C@@H](OC(=O)c2cc(OC)c(OC)c(OC)c2)[C@@H]1OC [RESERPINE]	Compound metabolized	Compound NOT metabolized	Compound NOT metabolized	Compound metabolized	Compound NOT metabolized	Compound metabolized	–	Compound metabolized	Compound metabolized
